Results on 79 compounds are retold here after the METLIN SMRT retention time set (Domingo-Almenara et al. 2019).

A short description of this data set: gradient 5% acetonitrile 3 min, to 50% in 2 min, to 85% in 15 min, held 3 min, 100 µL/min. Conditions: column: Zorbax Extend-C18 2.1 x 50 mm; eluents: water / acetonitrile, 0.1% formic acid. The method, boiled down:
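The mobile phases were water and acetonitrile, each with 0.1% formic acid, pumped at 100 μL/min through a Zorbax Extend-C18 column (2.1 × 50 mm, 1.8 μm). Pure standards were injected as mixtures of ~100 molecules and detected by a quadrupole time-of-flight mass spectrometer in positive and negative ionization mode. Retention time came from computationally picked adduct peaks, each inspected by hand.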
`CCOC(=O)c1c(C)[nH]c(C(=O)N2CCCC(C(=O)NCCCN3CCN(CC)CC3)C2)c1C` (centres undefined): the RP-LC retention time stood at 579 s.

Consider `Cc1cc(C)cc(C(=O)N2CCCC(C(=O)NCc3ccco3)C2)c1` (centres undefined), for which the RP-LC retention time was 798 s.

Compound `CCOC(=O)c1sc2nc(C)cc(C)c2c1NC(=O)CCS(=O)(=O)c1ccccc1` came in with an RP-LC retention time of 759 s.

In the case of `O=C(NCc1ccccc1Cl)C1CC(=O)N(CCc2c[nH]c3ccc(F)cc23)C1` (centres undefined), the RP-LC retention time was found to be 811 s.

As for `COc1ccc(CN2C(=O)CSc3c(c4ccccc4n3C)C2C(=O)NCCCOC(C)C)cc1` (centres undefined), the RP-LC retention time stood at 884 s.

In the case of `CCc1noc(-c2ccc(SCC(=O)N3CCCCC3C)nc2)n1` (centres undefined), the RP-LC retention time stood at 1200 s.

The compound `COc1cc(O)ccc1-c1nc2cccc(C)n2c1Nc1ccccc1C` returned an RP-LC retention time of 667 s.

On to `COc1cccc(NS(=O)(=O)c2cc3n(c2)CCN(C)C3=O)c1`, for which the RP-LC retention time was 674 s.

Take `COC(=O)c1cnc(N2CCN(c3ccc(OC)cc3)CC2)c2ccccc12`: the RP-LC retention time was 980 s.

In the case of `O=C(Nc1cccc(F)c1)Nc1ccc2nncn2c1`, the RP-LC retention time was 686 s.

Regarding `Cc1cccc(-c2nnc(-c3nc(NCCc4c(C)noc4C)c4ccccc4n3)o2)c1`, the RP-LC retention time amounted to 956 s.

As for `COc1ccc(-c2csc(NC(=O)CCn3c(=O)sc4ccccc43)n2)cc1OC`, the RP-LC retention time stood at 917 s.

On to `O=C1CCc2cc(S(=O)(=O)NCCCc3ccccc3)cc3c2N1CCC3`, for which the RP-LC retention time was found to be 879 s.

In the case of `Cc1cc(C)cc(N2C(=O)CN(S(C)(=O)=O)CC2(C)C(=O)NCc2ccc(F)cc2)c1` (centres undefined), the RP-LC retention time was 827 s.

In the case of `Cc1cc(C)cc(NC(=O)Nc2ccc3nncn3c2)c1`, the RP-LC retention time worked out at 738 s.

As to `CNC(=O)C1CCCN(c2nc3ncn(CC(=O)Nc4ccccc4C(F)(F)F)c(=O)c3s2)C1` (centres undefined), the RP-LC retention time worked out at 663 s.

Consider `CC(C)(OCc1nn(Cc2ccccc2)c2ccccc12)C(=O)O`, for which the RP-LC retention time worked out at 937 s.

The compound `COCC1CN(C(=O)CN2CCCC2=O)CCC1(F)F` (centres undefined) displayed an RP-LC retention time of 598 s.

For `CC(C)CNC(=O)Cc1nnc(-c2cccc(F)c2)o1`, the RP-LC retention time was 744 s.

`COc1ccccc1C(=O)N1CCC2(CC1)NC(=O)c1cc(Cl)ccc1N2C` came in with an RP-LC retention time of 787 s.

The compound `Cc1occc1-c1nnc(SC(C)C(=O)N2CCCc3ccccc32)o1` (centres undefined) had an RP-LC retention time of 981 s.

Take `O=[N+]([O-])c1ccc(-c2csc(Nc3ccccc3)n2)cc1`: the RP-LC retention time was determined as 1130 s.

For `COC(=O)c1ccc(NC(=O)C(=O)NCCOc2ccc(F)cc2)cc1`, the RP-LC retention time was found to be 870 s.

`CCOC(=O)CCc1c(C)nn(-c2cc(N3CCOCC3)ncn2)c1C` registered an RP-LC retention time of 863 s.

For `CC(=O)c1ccc(OC(=O)c2cc3c(C)nn(-c4ccccc4)c3s2)cc1`, the RP-LC retention time amounted to 1310 s.

`COc1ccc(-c2nnc(N3CCC(C(=O)NCC4CCCCC4)CC3)o2)cc1` yielded an RP-LC retention time of 887 s.

As to `CCCc1cc(N2CCN(C(=O)c3ccc(C#N)cc3)CC2)nc2nncn12`, the RP-LC retention time turned out to be 609 s.

For `CN(Cc1nc2cc(C(=O)N3CCCC3)ccc2n1C)C(=O)Nc1ccc(Cl)cc1`, the RP-LC retention time stood at 654 s.

Compound `COc1ccc(NC(=O)Cn2nc3c(N4CCSCC4)nccn3c2=O)c(OC)c1` showed an RP-LC retention time of 797 s.

Take `COc1ccc(N2CC(C(=O)N3CCC(C(=O)Nc4nc(C)cs4)CC3)CC2=O)cc1` (centres undefined): the RP-LC retention time came to 680 s.

For `COc1ccc(-c2nc(-c3ccc(-n4ccnc4)nc3)no2)c(OC)c1`, the RP-LC retention time stood at 698 s.

Compound `CC1=C(c2ccc(C)cc2)S(=O)(=O)N=C1N1CCCN(C(=O)Cn2ccnc2C)CC1` displayed an RP-LC retention time of 616 s.

For the compound `CCOC(=O)c1cccc(Nc2c(-c3ccc(Br)cc3)nc3cnccn23)c1`, the RP-LC retention time was 1040 s.

Compound `COC(=O)COC(=O)c1cn(-c2cccc(F)c2)c(=O)c2ccccc12` displayed an RP-LC retention time of 938 s.

For the compound `Cn1cc2c(n1)c(=O)n(Cc1ccccc1)c(=O)n2CC(=O)NCc1ccccc1`, the RP-LC retention time stood at 769 s.

In turn, `COCc1cc(=O)n(CCc2ccccc2)c(N2CCCC2)n1` came in with an RP-LC retention time of 816 s.

With `Cc1nc2cc(N3CCCC(C(=O)NCc4cccc(F)c4)C3)cnc2nc1C` (centres undefined), the RP-LC retention time is 735 s.

`Cc1ccc(S(=O)(=O)C(F)(F)F)cc1N1C(=O)c2ccccc2C1=O` registered an RP-LC retention time of 942 s.

`Cc1ccc(C2=NC3(CCN(C(=O)c4ccc[nH]4)CC3)ON2)cc1` yielded an RP-LC retention time of 747 s.

As to `Cc1ccn2c(NC(=O)CC(C)(C)C)c(-c3ccccc3)nc2c1`, the RP-LC retention time amounted to 666 s.

Compound `CCOC(=O)C1CCCN(C(=O)CCC(=O)N2CCCn3nc(-c4cn(C)c5ccccc45)cc32)C1` (centres undefined) had an RP-LC retention time of 803 s.

`CN(CCc1noc(COc2ccccc2)n1)C(=O)Cc1ccccc1` had an RP-LC retention time of 863 s.

`CC(=O)N1CCc2sc(S(=O)(=O)N3CCN(c4ccccc4)CC3)cc2C1` yielded an RP-LC retention time of 884 s.

In the case of `Cc1nncn1C1CN(C(=O)c2ccc(OC(F)(F)F)cc2)C1`, the RP-LC retention time came to 654 s.

Take `CNC(=O)c1cn(-c2ccc(SCC(=O)Nc3ccc4c(c3)OCCO4)nn2)cn1`: the RP-LC retention time was determined as 645 s.

For the compound `Cn1cc(-c2ccncc2)cc1C(=O)N1CCN(c2ccc(F)cc2)CC1`, the RP-LC retention time is 632 s.

On to `Cc1ccc(C2Cn3nnc(-c4nc(-c5ccccc5Br)no4)c3CO2)c(C)c1` (centres undefined), for which the RP-LC retention time is 1270 s.

As for `Cc1nn(C)cc1CN(C)C(=O)c1cc2c(=O)n(CC(C)C)c3ccccc3n2n1`, the RP-LC retention time was determined as 808 s.

With `CCC(CC)C(=O)Nc1nc(-c2ccc3c(c2)N(C)C(=O)C(C)O3)cs1` (centres undefined), the RP-LC retention time turned out to be 992 s.

Consider `CCOc1ccc(N2C=C(C(=O)N3CCOCC3)S(=O)(=O)c3ccc(F)cc32)cc1`, for which the RP-LC retention time turned out to be 845 s.

Consider `COc1ccccc1Cc1noc(C2CN(C(=O)CCc3c(C)noc3C)C2)n1`, for which the RP-LC retention time was determined as 738 s.

Turning to `Cc1ccc(Cn2cc(CCC(=O)N3CCC(C(N)=O)CC3)c3ccccc32)cc1`, the RP-LC retention time came out at 813 s.

Take `C[C@H]1CN(S(=O)(=O)c2ccccc2)C[C@@H]1c1nc(-c2ccncc2)no1`: the RP-LC retention time is 871 s.

For `Cc1ccn2c(NC(=O)COc3ccc(Cl)cc3Cl)c(-c3ccc(F)cc3)nc2c1`, the RP-LC retention time turned out to be 804 s.

In the case of `COc1cccc(CNC(=O)C2(c3ccc(NC(C)=O)cc3)CCC2)c1`, the RP-LC retention time came out at 737 s.

Take `CCCS(=O)(=O)N1CC2(CCCCC2)CC1COCc1ccccc1` (centres undefined): the RP-LC retention time stood at 1260 s.

`CCOC(=O)c1nc(NCCN2CCOCC2)c2ccccc2n1` yielded an RP-LC retention time of 584 s.

`Cc1nc(N2CCN(c3ccccn3)CC2)c2c(C)c(C(=O)Nc3ccc(F)cc3F)sc2n1` had an RP-LC retention time of 701 s.

`CC1=C(c2ccc(C)cc2)S(=O)(=O)N=C1N1CCC(NC(=O)CCC(C)C)CC1`: the RP-LC retention time worked out at 888 s.

Compound `COC(=O)c1ccccc1NC(=O)Cn1c(=O)n(-c2ccccc2)c(=O)c2c1cc(C)n2C` yielded an RP-LC retention time of 911 s.

`COCc1cc(=O)n(CC(=O)Nc2ccc(OC)c(OC)c2)c(N2CCOCC2)n1` yielded an RP-LC retention time of 702 s.

Regarding `Cc1cccc(-c2cc3n(n2)CCCN(C(=O)c2n[nH]c4ccccc24)C3)c1`, the RP-LC retention time stood at 860 s.

As to `Cc1ccc2c(Nc3ccc(Cl)cc3)c(C(=O)N3CCSCC3)cnc2n1`, the RP-LC retention time is 634 s.

In turn, `O=C(NC1CC1)[C@@H]1C[C@H](Oc2ccccc2)CN1C(=O)C1CCCC1` displayed an RP-LC retention time of 750 s.

As to `O=C(CCc1cccc2[nH]ccc12)NCc1ccc(N2CCCCC2)cc1`, the RP-LC retention time stood at 612 s.

As to `Cc1ccc(Nc2nc(C(=O)NCc3ccco3)nc3ccccc23)cc1`, the RP-LC retention time came out at 779 s.

As to `Cc1nnc(-c2nnc(NC3CCCCCC3)c3ccccc23)o1`, the RP-LC retention time is 766 s.

`CN(C)c1ccc(-c2nc(C3CC(=O)N(c4ccc(F)cc4)C3)no2)cc1` (centres undefined): the RP-LC retention time turned out to be 975 s.

`Cc1ccc(NC(=O)Cn2nc(N3CCCCCC3)c3ccccc3c2=O)c(F)c1` came in with an RP-LC retention time of 1190 s.

`CCN1CCN(C(=O)c2ccc3ccnc(N4CCN(c5ccc(Cl)cc5)CC4)c3c2)CC1` gave an RP-LC retention time of 618 s.

Consider `COc1cccc(S(=O)(=O)N2CCc3c(c(CN(C(C)=O)c4ccccc4)nn3C)C2)c1`, for which the RP-LC retention time was determined as 793 s.

On to `Cc1onc(-c2ccccc2Cl)c1C(=O)NC1C(=O)N2C1SC(C)(C)C2C(=O)O` (centres undefined), for which the RP-LC retention time came out at 815 s.

In turn, `CC(C)Cn1c(=O)c(-c2ccc(C(=O)N3CCN(C)CC3)cc2)nc2ccccc21` showed an RP-LC retention time of 670 s.

Take `CC1Oc2ccc(-c3csc(NC(=O)c4cccc(Br)c4)n3)cc2N(C)C1=O` (centres undefined): the RP-LC retention time worked out at 960 s.

`Cc1cccc(NC(=O)Cn2cnc3c(sc4nc(-c5ccccc5)ccc43)c2=O)c1C` had an RP-LC retention time of 1020 s.

`NC(=O)C1CCN(C(=O)c2cncc(NS(=O)(=O)c3ccc(F)cc3)c2)CC1` registered an RP-LC retention time of 606 s.

On to `O=[N+]([O-])c1ccccc1CSc1nnc2sc3ccccc3n12`, for which the RP-LC retention time came out at 788 s.

In the case of `Cc1ccc(-c2nocc2CCC(=O)NCc2ccc3c(c2)OCO3)cc1`, the RP-LC retention time was determined as 816 s.

As to `Cc1ccc(-c2ncccc2CNS(=O)(=O)c2cccc(F)c2)cc1`, the RP-LC retention time was found to be 713 s.
